Data from PubChem BioAssay AID2060890 (Molecular Pharmacology Branch, DTP, NCI, 2025).

System: LG0703-F948-PDC complex spheroid viability
Experiment: Anticancer human tumor LG0703-F948-PDC patient-derived lung adenocarcinoma cell line growth inhibition [RAS]
Conditions: for IC50: curve of first compound; for viability, T/C: stronger effect = lower value
Summary of the method: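 Multi-cell-type spheroids: tumor cells plus HUVEC endothelial cells and mesenchymal stem cells. RAS-pathway inhibitors were combined with targeted agents, each dosed in half-log steps down from clinical Cmax, or from 10 microM when Cmax was unknown.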

[1] = second compound 0.000949 µM, first compound 0.0316 µM
[2] = second compound 0.000949 µM, first compound 0.1 µM
[3] = second compound 0.000949 µM, first compound 0.316 µM
[4] = second compound 0.000949 µM, first compound 1 µM
[5] = second compound 0.003 µM, first compound 0.0316 µM
[6] = second compound 0.003 µM, first compound 0.1 µM
[7] = second compound 0.003 µM, first compound 0.316 µM
[8] = second compound 0.003 µM, first compound 1 µM
[9] = second compound 0.00949 µM, first compound 0.0316 µM
[10] = second compound 0.00949 µM, first compound 0.1 µM
[11] = second compound 0.00949 µM, first compound 0.316 µM
[12] = second compound 0.00949 µM, first compound 1 µM
[13] = second compound 0.03 µM, first compound 0.0316 µM
[14] = second compound 0.03 µM, first compound 0.1 µM
[15] = second compound 0.03 µM, first compound 0.316 µM
[16] = second compound 0.03 µM, first compound 1 µM
[17] = second compound 0.0949 µM, first compound 0.0316 µM
[18] = second compound 0.0949 µM, first compound 0.1 µM
[19] = second compound 0.0949 µM, first compound 0.316 µM
[20] = second compound 0.0949 µM, first compound 1 µM
[21] = second compound 0.3 µM, first compound 0.0316 µM
[22] = second compound 0.3 µM, first compound 0.1 µM
[23] = second compound 0.3 µM, first compound 0.316 µM
[24] = second compound 0.3 µM, first compound 1 µM
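Also: spheroids exposed to agents for 7 days.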
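For viability, T/C in this document: 100% = DMSO vehicle wells.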

**Q.** Which results are given for CC(=O)OC12COC1CC(O)C1(C)C(=O)C(O)C3=C(C)C(OC(=O)C(O)C(NC(=O)OC(C)(C)C)c4ccccc4)CC(O)(C(OC(=O)c4ccccc4)C21)C3(C)C (stereo unspecified) + CCn1c(-c2cccnc2C(C)OC)c2c3cc(ccc31)N1CCOC(CC(NC(=O)C(C(C)C)N(C)C(=O)C3(F)CCN(C(=O)C#CC(C)(C)N(C)C)CC3)C(=O)N3CCCC(N3)C(=O)OCC(C)(C)C2)C1?
**A.** IC50 (second compound 0.000949 µM): < 31.6 nM; IC50 (second compound 0.003 µM): < 31.6 nM; IC50 (second compound 0.00949 µM): < 31.6 nM; IC50 (second compound 0.03 µM): < 31.6 nM; IC50 (second compound 0.0949 µM): < 31.6 nM; IC50 (second compound 0.3 µM): < 31.6 nM; viability, T/C [1]: 40.1%; viability, T/C [2]: 36.8%; viability, T/C [3]: 36.3%; viability, T/C [4]: 39.4%; viability, T/C (second compound 0.000949 µM, first compound 3.16 µM): 44.2%; viability, T/C (second compound 0.000949 µM, first compound 10 µM): 41%; viability, T/C [5]: 37.7%; viability, T/C [6]: 35.4%; viability, T/C [7]: 41.1%; viability, T/C [8]: 42.1%; viability, T/C (second compound 0.003 µM, first compound 3.16 µM): 38.7%; viability, T/C (second compound 0.003 µM, first compound 10 µM): 35.6%; viability, T/C [9]: 36.5%; viability, T/C [10]: 36.7%; viability, T/C [11]: 36.6%; viability, T/C [12]: 40.9%; viability, T/C (second compound 0.00949 µM, first compound 3.16 µM): 49.5%; viability, T/C (second compound 0.00949 µM, first compound 10 µM): 46.9%; viability, T/C [13]: 33.5%; viability, T/C [14]: 35.5%; viability, T/C [15]: 36.5%; viability, T/C [16]: 40.3%; viability, T/C (second compound 0.03 µM, first compound 3.16 µM): 42.5%; viability, T/C (second compound 0.03 µM, first compound 10 µM): 34%; viability, T/C [17]: 39%; viability, T/C [18]: 32.7%; viability, T/C [19]: 33.4%; viability, T/C [20]: 34%; viability, T/C (second compound 0.0949 µM, first compound 3.16 µM): 35.6%; viability, T/C (second compound 0.0949 µM, first compound 10 µM): 37.1%; viability, T/C [21]: 28.5%; viability, T/C [22]: 22.3%; viability, T/C [23]: 22.4%; viability, T/C [24]: 23.4%; viability, T/C (second compound 0.3 µM, first compound 3.16 µM): 23.7%; viability, T/C (second compound 0.3 µM, first compound 10 µM): 20.9%

**Q.** Which results are given for CCc1c2c(nc3ccc(O)cc13)-c1cc3c(c(=O)n1C2)COC(=O)[C@]3(O)CC + CCn1c(-c2cccnc2C(C)OC)c2c3cc(ccc31)N1CCOC(CC(NC(=O)C(C(C)C)N(C)C(=O)C3(F)CCN(C(=O)C#CC(C)(C)N(C)C)CC3)C(=O)N3CCCC(N3)C(=O)OCC(C)(C)C2)C1?
**A.** IC50 (second compound 0.000949 µM): 83.9 nM; IC50 (second compound 0.003 µM): 77 nM; IC50 (second compound 0.00949 µM): 63.7 nM; IC50 (second compound 0.03 µM): 51.8 nM; IC50 (second compound 0.0949 µM): 19.9 nM; IC50 (second compound 0.3 µM): < 0.949 nM; viability, T/C (second compound 0.000949 µM, first compound 0.000949 µM): 123%; viability, T/C (second compound 0.000949 µM, first compound 0.003 µM): 86.9%; viability, T/C (second compound 0.000949 µM, first compound 0.00949 µM): 103%; viability, T/C (second compound 0.000949 µM, first compound 0.03 µM): 66%; viability, T/C (second compound 0.000949 µM, first compound 0.0949 µM): 43.3%; viability, T/C (second compound 0.000949 µM, first compound 0.3 µM): 30.6%; viability, T/C (second compound 0.003 µM, first compound 0.000949 µM): 130%; viability, T/C (second compound 0.003 µM, first compound 0.003 µM): 102%; viability, T/C (second compound 0.003 µM, first compound 0.00949 µM): 103%; viability, T/C (second compound 0.003 µM, first compound 0.03 µM): 60.5%; viability, T/C (second compound 0.003 µM, first compound 0.0949 µM): 48.1%; viability, T/C (second compound 0.003 µM, first compound 0.3 µM): 30.3%; viability, T/C (second compound 0.00949 µM, first compound 0.000949 µM): 111%; viability, T/C (second compound 0.00949 µM, first compound 0.003 µM): 103%; viability, T/C (second compound 0.00949 µM, first compound 0.00949 µM): 104%; viability, T/C (second compound 0.00949 µM, first compound 0.03 µM): 62.4%; viability, T/C (second compound 0.00949 µM, first compound 0.0949 µM): 46.8%; viability, T/C (second compound 0.00949 µM, first compound 0.3 µM): 26%; viability, T/C (second compound 0.03 µM, first compound 0.000949 µM): 113%; viability, T/C (second compound 0.03 µM, first compound 0.003 µM): 93.9%; viability, T/C (second compound 0.03 µM, first compound 0.00949 µM): 87.5%; viability, T/C (second compound 0.03 µM, first compound 0.03 µM): 56%; viability, T/C (second compound 0.03 µM, first compound 0.0949 µM): 40.4%; viability, T/C (second compound 0.03 µM, first compound 0.3 µM): 27.4%; viability, T/C (second compound 0.0949 µM, first compound 0.000949 µM): 85.7%; viability, T/C (second compound 0.0949 µM, first compound 0.003 µM): 91.2%; viability, T/C (second compound 0.0949 µM, first compound 0.00949 µM): 63.3%; viability, T/C (second compound 0.0949 µM, first compound 0.03 µM): 42.7%; viability, T/C (second compound 0.0949 µM, first compound 0.0949 µM): 27.1%; viability, T/C (second compound 0.0949 µM, first compound 0.3 µM): 22.9%; viability, T/C (second compound 0.3 µM, first compound 0.000949 µM): 44%; viability, T/C (second compound 0.3 µM, first compound 0.003 µM): 49.9%; viability, T/C (second compound 0.3 µM, first compound 0.00949 µM): 46.3%; viability, T/C (second compound 0.3 µM, first compound 0.03 µM): 25.8%; viability, T/C (second compound 0.3 µM, first compound 0.0949 µM): 19.2%; viability, T/C (second compound 0.3 µM, first compound 0.3 µM): 14.1%

**Q.** Nc1ccn(C2OC(CO)C(O)C2(F)F)c(=O)n1 (stereo unspecified) + CCn1c(-c2cccnc2C(C)OC)c2c3cc(ccc31)N1CCOC(CC(NC(=O)C(C(C)C)N(C)C(=O)C3(F)CCN(C(=O)C#CC(C)(C)N(C)C)CC3)C(=O)N3CCCC(N3)C(=O)OCC(C)(C)C2)C1 was tested. Which IC50 (second compound 0.000949 µM) did it give?
**A.** 7.67 nM

**Q.** What about the IC50 (second compound 0.003 µM) of the same compound?
**A.** 9.28 nM

**Q.** And the IC50 (second compound 0.00949 µM)?
**A.** 7.52 nM

**Q.** What about the IC50 (second compound 0.03 µM) of the same compound?
**A.** 6.69 nM

**Q.** And the IC50 (second compound 0.0949 µM)?
**A.** < 3.16 nM

**Q.** And the IC50 (second compound 0.3 µM)?
**A.** < 3.16 nM

**Q.** And the viability, T/C (second compound 0.000949 µM, first compound 0.00316 µM)?
**A.** 79.2%

**Q.** And the viability, T/C (second compound 0.000949 µM, first compound 0.01 µM)?
**A.** 40.2%

**Q.** And the viability, T/C [1]?
**A.** 36.9%

**Q.** What about the viability, T/C [2] of the same compound?
**A.** 32%

**Q.** And the viability, T/C [3]?
**A.** 32%

**Q.** And the viability, T/C [4]?
**A.** 30%

**Q.** And the viability, T/C (second compound 0.003 µM, first compound 0.00316 µM)?
**A.** 76.2%

**Q.** And the viability, T/C (second compound 0.003 µM, first compound 0.01 µM)?
**A.** 48.3%

**Q.** And the viability, T/C [5]?
**A.** 38.9%

**Q.** And the viability, T/C [6]?
**A.** 29.8%

**Q.** And the viability, T/C [7]?
**A.** 38.9%

**Q.** And the viability, T/C [8]?
**A.** 31.3%

**Q.** And the viability, T/C (second compound 0.00949 µM, first compound 0.00316 µM)?
**A.** 70.7%

**Q.** And the viability, T/C (second compound 0.00949 µM, first compound 0.01 µM)?
**A.** 43.2%

**Q.** What about the viability, T/C [9] of the same compound?
**A.** 38%

**Q.** What about the viability, T/C [10] of the same compound?
**A.** 36.9%

**Q.** What about the viability, T/C [11] of the same compound?
**A.** 43.9%

**Q.** And the viability, T/C [12]?
**A.** 30.9%

**Q.** What about the viability, T/C (second compound 0.03 µM, first compound 0.00316 µM) of the same compound?
**A.** 66%

**Q.** What about the viability, T/C (second compound 0.03 µM, first compound 0.01 µM) of the same compound?
**A.** 41.4%

**Q.** And the viability, T/C [13]?
**A.** 34%

**Q.** What about the viability, T/C [14] of the same compound?
**A.** 30%

**Q.** What about the viability, T/C [15] of the same compound?
**A.** 34.7%

**Q.** What about the viability, T/C [16] of the same compound?
**A.** 28.9%

**Q.** And the viability, T/C (second compound 0.0949 µM, first compound 0.00316 µM)?
**A.** 49.3%

**Q.** What about the viability, T/C (second compound 0.0949 µM, first compound 0.01 µM) of the same compound?
**A.** 33.2%

**Q.** What about the viability, T/C [17] of the same compound?
**A.** 26.7%

**Q.** And the viability, T/C [18]?
**A.** 30%

**Q.** What about the viability, T/C [19] of the same compound?
**A.** 27.8%

**Q.** What about the viability, T/C [20] of the same compound?
**A.** 22.2%

**Q.** And the viability, T/C (second compound 0.3 µM, first compound 0.00316 µM)?
**A.** 31.7%

**Q.** What about the viability, T/C (second compound 0.3 µM, first compound 0.01 µM) of the same compound?
**A.** 22.4%

**Q.** What about the viability, T/C [21] of the same compound?
**A.** 27.9%

**Q.** What about the viability, T/C [22] of the same compound?
**A.** 27.2%

**Q.** And the viability, T/C [23]?
**A.** 31.4%

**Q.** What about the viability, T/C [24] of the same compound?
**A.** 19.4%
